According to ChEMBL document CHEMBL1201862, “PubChem BioAssay data set” (2004):
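In this assay, cells in 96-well plates receive the compound at five concentrations for 48 hours. Endpoints are linearly interpolated between the surrounding concentrations. GI50 is the concentration that inhibits growth by half.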 The source made the active and inactive calls. No stated cut-off is given here; in the data, active = GI50 up to about 1.1 µM and inactive = higher.

How the values were obtained:
Assay in all cases: NCI anticancer screen, dose series, 48 h
ACHN = tested on: ACHN
CAKI-1 = tested on: CAKI-1
EKVX = tested on: EKVX
HCC 2998 = tested on: HCC 2998
HCT-116 = tested on: HCT-116
HCT-15 = tested on: HCT-15
HL-60 = tested on: HL-60
HOP-62 = tested on: HOP-62
MOLT-4 = tested on: MOLT-4
NCI-H460 = tested on: NCI-H460
RPMI-8226 = tested on: RPMI-8226
SF-539 = tested on: SF-539
SK-MEL-28 = tested on: SK-MEL-28
SN12C = tested on: SN12C
UACC-257 = tested on: UACC-257
Hs-578T = tested on: Hs-578T
MCF7 = tested on: MCF7
PC-3 = tested on: PC-3
T47D = tested on: T47D

Structure (SMILES) | GI50 (ACHN) | GI50 (CAKI-1) | GI50 (EKVX) | GI50 (HCC 2998) | GI50 (HCT-116) | GI50 (HCT-15) [µM] | GI50 (HL-60) | GI50 (HOP-62) | GI50 (MOLT-4) | GI50 (NCI-H460) | GI50 (RPMI-8226) | GI50 (SF-539) | GI50 (SK-MEL-28) | GI50 (SN12C) | GI50 (UACC-257) | GI50 (Hs-578T) | GI50 (MCF7) | GI50 (PC-3) | GI50 (T47D)
COc1ccc(-c2[nH]c3ccccc3c2CCNS(=O)(=O)c2ccc(C)cc2)cc1 | > 8.59 µM (inactive) | > 10 µM (inactive) | > 7.93 µM (inactive) | 9.68 µM (inactive) | > 8.85 µM (inactive) | 7.6 | 6.7 µM (inactive) | > 10 µM (inactive) | 4.21 µM (inactive) | 6.17 µM (inactive) | 4.68 µM (inactive) | > 10 µM (inactive) | > 10 µM (inactive) | > 10 µM (inactive) | > 8.34 µM (inactive) | – | – | – | –
O=C1CCC(=O)c2ccccc2N1 | > 100 µM (inactive) | > 100 µM (inactive) | > 100 µM (inactive) | > 100 µM (inactive) | > 100 µM (inactive) | > 100 | > 100 µM (inactive) | > 100 µM (inactive) | > 100 µM (inactive) | > 100 µM (inactive) | > 100 µM (inactive) | > 100 µM (inactive) | > 100 µM (inactive) | > 100 µM (inactive) | > 100 µM (inactive) | – | – | – | –
C=C1C(=O)O[C@@H]2/C=C(C)/C=C\[C@@H]3O[C@@]3(C)C[C@@H](O)C12 (some centres undefined) | 5.24 µM (inactive) | 8.91 µM (inactive) | 3.89 µM (inactive) | 18.9 µM (inactive) | 8.13 µM (inactive) | 6.27 | 2.54 µM (inactive) | 36.1 µM (inactive) | 5.14 µM (inactive) | 28.9 µM (inactive) | 3.74 µM (inactive) | 7.73 µM (inactive) | 19.9 µM (inactive) | 13.4 µM (inactive) | 11.8 µM (inactive) | 39.2 µM (inactive) | 4.4 µM (inactive) | 24.5 µM (inactive) | 7.19 µM (inactive)
C#CCCCC(=C)C[C@@H]1OC(=O)[C@H](C)[C@@H]1O | > 100 µM (inactive) | > 100 µM (inactive) | > 100 µM (inactive) | > 100 µM (inactive) | > 100 µM (inactive) | > 100 | > 100 µM (inactive) | > 100 µM (inactive) | > 100 µM (inactive) | > 100 µM (inactive) | > 100 µM (inactive) | – | > 100 µM (inactive) | > 100 µM (inactive) | – | – | > 100 µM (inactive) | > 100 µM (inactive) | > 100 µM (inactive)
C#CCOCn1cc(C)c(=O)[nH]c1=O | > 100 µM (inactive) | > 100 µM (inactive) | > 100 µM (inactive) | > 100 µM (inactive) | > 100 µM (inactive) | > 100 | > 100 µM (inactive) | > 100 µM (inactive) | > 100 µM (inactive) | > 100 µM (inactive) | > 100 µM (inactive) | > 100 µM (inactive) | > 100 µM (inactive) | > 100 µM (inactive) | > 100 µM (inactive) | > 100 µM (inactive) | > 100 µM (inactive) | > 100 µM (inactive) | > 100 µM (inactive)
OCCN1CCN2C=C(C3CCCC4N(CCO)CCN34)CCC21 (centres undefined) | > 49.2 µM (inactive) | 48 µM (inactive) | > 69.7 µM (inactive) | > 100 µM (inactive) | 24.9 µM (inactive) | 27.9 | 5.28 µM (inactive) | > 100 µM (inactive) | 13.9 µM (inactive) | > 100 µM (inactive) | 8.04 µM (inactive) | 33.7 µM (inactive) | 42 µM (inactive) | 39.5 µM (inactive) | > 100 µM (inactive) | – | – | – | –
Cc1nc(Nc2ccc(Cl)cc2)sc1C(=O)NNC(=S)NN | 19.5 µM (inactive) | 24.7 µM (inactive) | 16.9 µM (inactive) | 15.5 µM (inactive) | 17 µM (inactive) | 20.4 | 21.4 µM (inactive) | 18.8 µM (inactive) | 21.5 µM (inactive) | 19.7 µM (inactive) | 29 µM (inactive) | 17.5 µM (inactive) | 19.3 µM (inactive) | 18.1 µM (inactive) | 13.2 µM (inactive) | – | – | – | –
Cn1nc(-c2ccccc2)c(N=[N+]=[N-])cc1=O | > 100 µM (inactive) | > 100 µM (inactive) | > 100 µM (inactive) | > 100 µM (inactive) | > 100 µM (inactive) | > 100 | > 100 µM (inactive) | > 100 µM (inactive) | > 100 µM (inactive) | > 100 µM (inactive) | > 100 µM (inactive) | > 100 µM (inactive) | > 100 µM (inactive) | > 100 µM (inactive) | > 100 µM (inactive) | – | – | – | –
CCCCCCCCCCCCCC(=O)OCC1OC(n2cc(F)c(=O)[nH]c2=O)C(NC(=O)OCc2ccccc2)C(OC(=O)CCCCCCCCCCCCC)C1O (centres undefined) | > 100 µM (inactive) | > 100 µM (inactive) | > 100 µM (inactive) | > 100 µM (inactive) | > 100 µM (inactive) | > 100 | > 100 µM (inactive) | > 100 µM (inactive) | > 100 µM (inactive) | > 100 µM (inactive) | > 100 µM (inactive) | > 100 µM (inactive) | > 100 µM (inactive) | > 100 µM (inactive) | > 100 µM (inactive) | – | – | – | –
COc1ccc(NC(=O)NNS(=O)(=O)c2ccc(C)cc2)cc1 | 91.6 µM (inactive) | > 100 µM (inactive) | > 100 µM (inactive) | > 100 µM (inactive) | > 100 µM (inactive) | > 100 | > 100 µM (inactive) | > 100 µM (inactive) | > 100 µM (inactive) | > 100 µM (inactive) | > 100 µM (inactive) | > 100 µM (inactive) | > 100 µM (inactive) | > 100 µM (inactive) | > 100 µM (inactive) | > 100 µM (inactive) | > 100 µM (inactive) | 71 µM (inactive) | > 100 µM (inactive)
Sc1nn2c(Cc3ccccc3)nnc2s1 | > 100 µM (inactive) | > 100 µM (inactive) | > 100 µM (inactive) | > 100 µM (inactive) | > 100 µM (inactive) | > 100 | > 100 µM (inactive) | > 100 µM (inactive) | > 100 µM (inactive) | > 100 µM (inactive) | > 100 µM (inactive) | > 100 µM (inactive) | > 100 µM (inactive) | > 100 µM (inactive) | > 100 µM (inactive) | > 100 µM (inactive) | > 100 µM (inactive) | > 100 µM (inactive) | > 100 µM (inactive)
O=c1c(O)c(-c2ccc(O)cc2O)oc2cc(O)cc(O)c12 [MORIN] | > 100 µM (inactive) | > 100 µM (inactive) | 30.3 µM (inactive) | > 100 µM (inactive) | 86.1 µM (inactive) | > 100 | > 100 µM (inactive) | > 100 µM (inactive) | – | > 100 µM (inactive) | – | > 100 µM (inactive) | > 100 µM (inactive) | > 100 µM (inactive) | > 100 µM (inactive) | > 100 µM (inactive) | > 100 µM (inactive) | > 100 µM (inactive) | > 100 µM (inactive)
